Assays:
Assay in all cases: Kinase selectivity profiling
Format in all cases: biochemical
[1] = biological target: MARK2 (Homo sapiens, UniProt Q7KZI7); details: 1 µM, assay duplicates
Experimental: (§1) [20] Kinase selectivity profiling for compounds 7a, 7d, 14d and 14g was carried out at the International Centre for Protein Kinase Profiling, Division of Signal Transduction Therapy, University of Dundee.
(§2) Table S1: Kinase selectivity profiling of compounds 7a and 7d in a 102-kinase panel screened at a concentration of 1 µM.
(§3) Table S2: Kinase selectivity profiling of compounds 14d and 14g in a 105-kinase panel screened at a concentration of 1 µM.

[2] = biological target: MAPKAP-K2 (Homo sapiens, UniProt P49137); details: 1 µM, assay duplicates
Experimental: as §1, §2, §3

[3] = biological target: CDK2-Cyclin A (Homo sapiens, UniProt P24941); details: 1 µM, assay duplicates
Experimental: as §1, §2, §3

[4] = biological target: PKD1 (Homo sapiens, UniProt Q15139); details: 1 µM, assay duplicates
Experimental: as §1, §2, §3

[5] = biological target: BRSK2 (Homo sapiens, UniProt Q8IWQ3); details: 1 µM, assay duplicates
Experimental: as §1, §2, §3

[6] = biological target: HIPK1 (Homo sapiens, UniProt Q86Z02); details: 1 µM, assay duplicates
Experimental: as §1, §2, §3

[7] = biological target: p38b MAPK (Homo sapiens, UniProt Q15759); details: 1 µM, assay duplicates
Experimental: as §1, §2, §3

[8] = biological target: CK1 (Homo sapiens, UniProt P48730); details: 1 µM, assay duplicates
Experimental: as §1, §2, §3

[9] = biological target: ERK1 (Homo sapiens, UniProt P27361); details: 1 µM, assay duplicates
Sequence of ERK1 (P27361 whole entry): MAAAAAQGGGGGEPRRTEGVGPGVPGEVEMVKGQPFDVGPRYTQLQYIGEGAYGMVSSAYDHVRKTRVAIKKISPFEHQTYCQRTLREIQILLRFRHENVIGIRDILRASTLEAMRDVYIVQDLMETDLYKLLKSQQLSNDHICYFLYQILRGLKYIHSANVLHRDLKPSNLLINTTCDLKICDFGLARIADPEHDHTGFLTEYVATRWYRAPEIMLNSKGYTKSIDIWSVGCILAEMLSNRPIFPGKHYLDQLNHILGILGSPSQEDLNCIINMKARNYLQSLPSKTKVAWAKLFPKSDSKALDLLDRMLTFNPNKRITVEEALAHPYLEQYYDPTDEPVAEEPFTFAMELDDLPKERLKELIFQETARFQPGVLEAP
Experimental: as §1, §2, §3

[10] = biological target: MLK3 (Homo sapiens, UniProt Q16584); details: 1 µM, assay duplicates
Experimental: as §1, §2, §3

[11] = biological target: IRR (Homo sapiens, UniProt P14616); details: 1 µM, assay duplicates
Experimental: as §1, §2, §3

[12] = biological target: NEK2a (Homo sapiens, UniProt P51955); details: 1 µM, assay duplicates
Experimental: as §1, §2, §3

[13] = biological target: PIM2 (Homo sapiens, UniProt Q9P1W9); details: 1 µM, assay duplicates
Experimental: as §1, §2, §3

[14] = biological target: EPH-A2 (Homo sapiens, UniProt P29317); details: 1 µM, assay duplicates
Experimental: as §1, §2, §3

[15] = biological target: IKKe (Homo sapiens, UniProt Q14164); details: 1 µM, assay duplicates
Experimental: as §1, §2, §3

[16] = biological target: PIM3 (Homo sapiens, UniProt Q86V86); details: 1 µM, assay duplicates
Experimental: as §1, §2, §3

[17] = biological target: p38g MAPK (Homo sapiens, UniProt P53778); details: 1 µM, assay duplicates
Experimental: as §1, §2, §3

[18] = biological target: PRK2 (Homo sapiens, UniProt Q16513); details: 1 µM, assay duplicates
Experimental: as §1, §2, §3

[19] = biological target: IGF-1R (Homo sapiens, UniProt P08069); details: 1 µM, assay duplicates
Experimental: as §1, §2, §3

[20] = biological target: PKCz (Homo sapiens, UniProt Q05513); details: 1 µM, assay duplicates
Experimental: as §1, §2, §3

[21] = biological target: MARK1 (Homo sapiens, UniProt Q9P0L2); details: 1 µM, assay duplicates
Sequence of MARK1 (Q9P0L2 whole entry): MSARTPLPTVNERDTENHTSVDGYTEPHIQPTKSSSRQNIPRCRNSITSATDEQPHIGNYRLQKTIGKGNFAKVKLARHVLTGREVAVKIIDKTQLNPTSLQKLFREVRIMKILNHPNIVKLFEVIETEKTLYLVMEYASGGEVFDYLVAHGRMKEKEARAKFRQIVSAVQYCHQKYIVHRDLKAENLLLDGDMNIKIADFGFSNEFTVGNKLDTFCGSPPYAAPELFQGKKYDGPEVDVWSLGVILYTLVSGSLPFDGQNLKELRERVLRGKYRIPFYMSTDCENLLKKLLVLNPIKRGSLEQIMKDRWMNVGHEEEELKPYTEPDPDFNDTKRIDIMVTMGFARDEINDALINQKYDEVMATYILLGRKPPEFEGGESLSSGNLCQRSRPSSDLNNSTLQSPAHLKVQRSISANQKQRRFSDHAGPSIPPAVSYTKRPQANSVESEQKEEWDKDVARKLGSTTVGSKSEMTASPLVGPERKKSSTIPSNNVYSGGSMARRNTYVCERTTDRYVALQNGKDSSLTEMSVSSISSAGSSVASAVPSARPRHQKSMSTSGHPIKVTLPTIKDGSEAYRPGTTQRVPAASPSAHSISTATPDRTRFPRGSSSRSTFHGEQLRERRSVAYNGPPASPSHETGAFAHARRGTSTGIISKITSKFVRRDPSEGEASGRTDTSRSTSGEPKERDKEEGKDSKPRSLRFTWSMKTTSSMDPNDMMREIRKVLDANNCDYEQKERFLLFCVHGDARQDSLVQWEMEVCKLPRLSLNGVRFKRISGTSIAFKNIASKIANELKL
Experimental: as §1, §2, §3

[22] = biological target: DYRK3 (Homo sapiens, UniProt O43781); details: 1 µM, assay duplicates
Experimental: as §1, §2, §3

[23] = biological target: EPH-B3 (Homo sapiens, UniProt P54753); details: 1 µM, assay duplicates
Experimental: as §1, §2, §3

[24] = biological target: MLK1 (Homo sapiens, UniProt P80192); details: for MLK1 inhibition: 1 μM; for MLK1 % activity remaining: 1 µM, assay duplicates
Sequence of MLK1 (P80192 whole entry): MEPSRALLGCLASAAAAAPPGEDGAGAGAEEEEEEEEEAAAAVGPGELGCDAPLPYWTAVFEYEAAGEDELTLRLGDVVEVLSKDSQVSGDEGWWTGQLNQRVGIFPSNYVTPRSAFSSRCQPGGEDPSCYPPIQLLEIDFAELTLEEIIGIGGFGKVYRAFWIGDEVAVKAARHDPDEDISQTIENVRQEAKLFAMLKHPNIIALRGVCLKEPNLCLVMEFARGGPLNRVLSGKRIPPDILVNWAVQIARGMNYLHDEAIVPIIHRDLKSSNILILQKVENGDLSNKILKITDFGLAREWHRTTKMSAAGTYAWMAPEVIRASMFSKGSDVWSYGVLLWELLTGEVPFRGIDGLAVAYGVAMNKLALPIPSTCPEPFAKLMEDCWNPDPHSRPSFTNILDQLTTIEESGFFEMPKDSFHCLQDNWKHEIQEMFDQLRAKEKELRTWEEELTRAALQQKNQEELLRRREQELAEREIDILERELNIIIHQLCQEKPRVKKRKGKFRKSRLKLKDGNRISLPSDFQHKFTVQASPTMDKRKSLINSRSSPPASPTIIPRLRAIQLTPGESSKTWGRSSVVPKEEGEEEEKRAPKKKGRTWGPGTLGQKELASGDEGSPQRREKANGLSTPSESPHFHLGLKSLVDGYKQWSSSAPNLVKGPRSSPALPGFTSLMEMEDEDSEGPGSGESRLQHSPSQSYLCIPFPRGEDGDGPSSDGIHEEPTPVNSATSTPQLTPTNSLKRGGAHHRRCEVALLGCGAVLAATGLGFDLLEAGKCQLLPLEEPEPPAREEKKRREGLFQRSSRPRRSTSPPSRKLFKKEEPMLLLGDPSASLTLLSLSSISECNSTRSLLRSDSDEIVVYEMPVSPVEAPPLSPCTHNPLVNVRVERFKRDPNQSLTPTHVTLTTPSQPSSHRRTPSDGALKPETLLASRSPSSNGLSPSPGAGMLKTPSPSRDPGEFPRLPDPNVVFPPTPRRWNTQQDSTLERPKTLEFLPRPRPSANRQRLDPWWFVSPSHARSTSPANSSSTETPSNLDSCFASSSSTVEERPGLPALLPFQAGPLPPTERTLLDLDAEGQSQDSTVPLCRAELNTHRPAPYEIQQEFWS
Experimental: as §1, §2, §3

[25] = biological target: JNK3 (Homo sapiens, UniProt P53779); details: 1 µM, assay duplicates
Experimental: as §1, §2, §3

[26] = biological target: PKCa (Homo sapiens, UniProt P17252); details: 1 µM, assay duplicates
Experimental: as §1, §2, §3

[27] = biological target: MST4 (Homo sapiens, UniProt Q9P289); details: 1 µM, assay duplicates
Experimental: as §1, §2, §3

[28] = biological target: PAK4 (Homo sapiens, UniProt O96013); details: 1 µM, assay duplicates
Experimental: as §1, §2, §3

[29] = biological target: MINK1 (Homo sapiens, UniProt Q8N4C8); details: 1 µM, assay duplicates
Experimental: as §1, §2, §3

[30] = biological target: PRAK (Homo sapiens, UniProt Q8IW41); details: 1 µM, assay duplicates
Experimental: as §1, §2, §3

[31] = biological target: ERK2 (Homo sapiens, UniProt P28482); details: 1 µM, assay duplicates
Experimental: as §1, §2, §3

[32] = biological target: GCK (Homo sapiens, UniProt Q12851); details: 1 µM, assay duplicates
Experimental: as §1, §2, §3

[33] = biological target: S6K1 (Homo sapiens, UniProt P23443); details: 1 µM, assay duplicates
Experimental: as §1, §2, §3

[34] = biological target: RSK1 (Homo sapiens, UniProt Q15418); details: 1 µM, assay duplicates
Sequence of RSK1 (Q15418 whole entry): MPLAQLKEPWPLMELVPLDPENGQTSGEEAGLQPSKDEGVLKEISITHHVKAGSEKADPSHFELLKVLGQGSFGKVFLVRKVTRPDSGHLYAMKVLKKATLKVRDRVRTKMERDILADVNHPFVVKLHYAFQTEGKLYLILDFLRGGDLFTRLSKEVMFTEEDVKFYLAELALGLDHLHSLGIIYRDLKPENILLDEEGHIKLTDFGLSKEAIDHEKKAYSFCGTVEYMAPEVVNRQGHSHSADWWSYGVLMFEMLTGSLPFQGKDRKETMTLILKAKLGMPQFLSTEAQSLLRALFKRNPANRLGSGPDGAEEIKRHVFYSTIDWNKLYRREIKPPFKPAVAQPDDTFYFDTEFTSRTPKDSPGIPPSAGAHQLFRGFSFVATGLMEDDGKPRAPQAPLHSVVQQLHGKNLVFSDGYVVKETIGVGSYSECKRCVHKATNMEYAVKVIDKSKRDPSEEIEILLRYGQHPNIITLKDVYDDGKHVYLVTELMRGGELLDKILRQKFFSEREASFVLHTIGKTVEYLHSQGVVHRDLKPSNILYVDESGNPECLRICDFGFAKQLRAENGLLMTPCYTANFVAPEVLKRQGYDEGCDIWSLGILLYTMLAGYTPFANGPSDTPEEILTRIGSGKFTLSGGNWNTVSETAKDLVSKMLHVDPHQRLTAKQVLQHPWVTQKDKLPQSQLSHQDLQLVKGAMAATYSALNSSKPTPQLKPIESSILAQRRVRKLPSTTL
Experimental: as §1, §2, §3

[35] = biological target: PHK (Homo sapiens, UniProt Q16816); details: 1 µM, assay duplicates
Experimental: as §1, §2, §3

[36] = biological target: NEK6 (Homo sapiens, UniProt Q9HC98); details: 1 µM, assay duplicates
Experimental: as §1, §2, §3

[37] = biological target: MARK3 (Homo sapiens, UniProt P27448); details: 1 µM, assay duplicates
Experimental: as §1, §2, §3

[38] = biological target: Src (Homo sapiens, UniProt P12931); details: 1 µM, assay duplicates
Experimental: as §1, §2, §3

[39] = biological target: JNK1 (Homo sapiens, UniProt P45983); details: 1 µM, assay duplicates
Experimental: as §1, §2, §3

[40] = biological target: Lck (Homo sapiens, UniProt P06239); details: 1 µM, assay duplicates
Experimental: as §1, §2, §3

[41] = biological target: PLK1 (Homo sapiens, UniProt P53350); details: 1 µM, assay duplicates
Experimental: as §1, §2, §3

[42] = biological target: MNK2 (Homo sapiens, UniProt Q9HBH9); details: 1 µM, assay duplicates
Experimental: as §1, §2, §3

[43] = biological target: JAK2 (Homo sapiens, UniProt O60674); details: for JAK2 inhibition: 1 μM; for JAK2 % activity remaining: 1 µM, assay duplicates
Sequence of JAK2 (O60674 whole entry): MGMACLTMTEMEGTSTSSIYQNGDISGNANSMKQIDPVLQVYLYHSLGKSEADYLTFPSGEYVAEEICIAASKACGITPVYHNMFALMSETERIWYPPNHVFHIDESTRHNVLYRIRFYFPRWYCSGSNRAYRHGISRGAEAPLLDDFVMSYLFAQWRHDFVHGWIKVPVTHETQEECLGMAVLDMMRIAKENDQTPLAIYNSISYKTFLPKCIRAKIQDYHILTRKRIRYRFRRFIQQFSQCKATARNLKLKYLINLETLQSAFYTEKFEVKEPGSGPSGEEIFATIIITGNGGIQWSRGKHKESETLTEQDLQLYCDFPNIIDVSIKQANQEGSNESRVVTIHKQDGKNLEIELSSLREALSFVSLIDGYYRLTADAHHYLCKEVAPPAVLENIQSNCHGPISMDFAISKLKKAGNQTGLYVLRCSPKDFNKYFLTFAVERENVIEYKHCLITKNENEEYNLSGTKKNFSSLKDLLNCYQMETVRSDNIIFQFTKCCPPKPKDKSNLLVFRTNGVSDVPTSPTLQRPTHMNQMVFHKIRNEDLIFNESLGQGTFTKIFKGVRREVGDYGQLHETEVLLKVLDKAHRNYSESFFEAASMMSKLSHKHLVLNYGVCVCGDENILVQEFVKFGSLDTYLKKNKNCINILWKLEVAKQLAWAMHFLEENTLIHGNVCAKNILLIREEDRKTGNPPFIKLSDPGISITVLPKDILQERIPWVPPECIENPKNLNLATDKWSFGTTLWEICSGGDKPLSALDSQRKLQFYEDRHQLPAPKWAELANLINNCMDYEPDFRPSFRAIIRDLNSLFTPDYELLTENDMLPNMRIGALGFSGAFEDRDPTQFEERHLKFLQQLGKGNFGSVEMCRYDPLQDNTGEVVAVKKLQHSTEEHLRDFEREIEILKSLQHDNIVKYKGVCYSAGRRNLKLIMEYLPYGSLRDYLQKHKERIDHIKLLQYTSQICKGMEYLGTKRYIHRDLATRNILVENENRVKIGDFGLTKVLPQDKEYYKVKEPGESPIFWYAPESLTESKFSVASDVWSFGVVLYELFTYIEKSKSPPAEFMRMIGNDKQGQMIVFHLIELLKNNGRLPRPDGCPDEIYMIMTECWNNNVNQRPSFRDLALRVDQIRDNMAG
Experimental: as §1, §2, §3

Cc1nn(C)cc1-c1nc2c(-c3cnn(Cc4ccccc4)c3)c(Cl)cnc2[nH]1 [Compound 7a]
MARK2 % activity remaining [1]: 31%
MAPKAP-K2 % activity remaining [2]: 84%
CDK2-Cyclin A % activity remaining [3]: 1%
PKD1 % activity remaining [4]: 76%
BRSK2 % activity remaining [5]: 33%
HIPK1 % activity remaining [6]: 3%
p38b MAPK % activity remaining [7]: 91%
CK1 % activity remaining [8]: 63%
ERK1 % activity remaining [9]: 28%
MLK3 % activity remaining [10]: 2%
IRR % activity remaining [11]: 20%
NEK2a % activity remaining [12]: 67%
PIM2 % activity remaining [13]: 86%
EPH-A2 % activity remaining [14]: 70%
IKKe % activity remaining [15]: 53%
PIM3 % activity remaining [16]: 45%
p38g MAPK % activity remaining [17]: 17%
PRK2 % activity remaining [18]: 42%
IGF-1R % activity remaining [19]: 10%
PKCz % activity remaining [20]: 103%
MARK1 % activity remaining [21]: 31%
DYRK3 % activity remaining [22]: 25%
EPH-B3 % activity remaining [23]: 99%
MLK1 inhibition [24]: greater than 80%
MLK1 % activity remaining [24]: 3%
JNK3 % activity remaining [25]: 18%
PKCa % activity remaining [26]: 63%
MST4 % activity remaining [27]: 64%
PAK4 % activity remaining [28]: 23%
MINK1 % activity remaining [29]: 28%
PRAK % activity remaining [30]: 83%
ERK2 % activity remaining [31]: 16%
GCK % activity remaining [32]: 22%
S6K1 % activity remaining [33]: 18%
RSK1 % activity remaining [34]: 25%
PHK % activity remaining [35]: 17%
NEK6 % activity remaining [36]: 64%
MARK3 % activity remaining [37]: 20%
Src % activity remaining [38]: 9%
JNK1 % activity remaining [39]: 13%
Lck % activity remaining [40]: 61%
PLK1 % activity remaining [41]: 75%
MNK2 % activity remaining [42]: 44%
JAK2 inhibition [43]: greater than 80%
JAK2 % activity remaining [43]: 2%

Cc1cc(Cn2cc(-c3c(Cl)cnc4[nH]c(-c5cn(C)nc5C)nc34)cn2)no1 [Compound 14d]
MARK2 % activity remaining [1]: 28%
MAPKAP-K2 % activity remaining [2]: 100%
CDK2-Cyclin A % activity remaining [3]: 1%
PKD1 % activity remaining [4]: 97%
BRSK2 % activity remaining [5]: 72%
HIPK1 % activity remaining [6]: 22%
p38b MAPK % activity remaining [7]: 91%
CK1 % activity remaining [8]: 78%
ERK1 % activity remaining [9]: 52%
MLK3 % activity remaining [10]: 6%
IRR % activity remaining [11]: 24%
NEK2a % activity remaining [12]: 71%
PIM2 % activity remaining [13]: 91%
EPH-A2 % activity remaining [14]: 57%
IKKe % activity remaining [15]: 3%
PIM3 % activity remaining [16]: 55%
p38g MAPK % activity remaining [17]: 36%
PRK2 % activity remaining [18]: 43%
IGF-1R % activity remaining [19]: 5%
PKCz % activity remaining [20]: 96%
MARK1 % activity remaining [21]: 38%
DYRK3 % activity remaining [22]: 30%
EPH-B3 % activity remaining [23]: 54%
MLK1 inhibition [24]: ≥ 80%
MLK1 % activity remaining [24]: 8%
JNK3 % activity remaining [25]: 62%
PKCa % activity remaining [26]: 83%
MST4 % activity remaining [27]: 56%
PAK4 % activity remaining [28]: 25%
MINK1 % activity remaining [29]: 86%
PRAK % activity remaining [30]: 100%
ERK2 % activity remaining [31]: 32%
GCK % activity remaining [32]: 40%
S6K1 % activity remaining [33]: 12%
RSK1 % activity remaining [34]: 28%
PHK % activity remaining [35]: 27%
NEK6 % activity remaining [36]: 116%
MARK3 % activity remaining [37]: 19%
Src % activity remaining [38]: 8%
JNK1 % activity remaining [39]: 45%
Lck % activity remaining [40]: 34%
PLK1 % activity remaining [41]: 115%
MNK2 % activity remaining [42]: 32%
JAK2 inhibition [43]: ≥ 80%
JAK2 % activity remaining [43]: 2%

Source: article PMC4577729, “7-(Pyrazol-4-yl)-3H-imidazo[4,5-b]pyridine-based derivatives for kinase inhibition: Co-crystallisation studies with Aurora-A reveal distinct differences in the orientation of the pyrazole N1-substituent” (Bioorganic & Medicinal Chemistry Letters, 2015)
